Laboratory results as given in patent US10981932B2, “Macrocyclic indole derivatives” (Bayer Aktiengesellschaft, priority 2016, dated 2021).
Structures can show the parent of a compound that is named as a salt. Where two headings read alike, the source gives them in different places.

Assays:
MCL-1 = MCL-1 (Homo sapiens, UniProt Q07820); assay: Protein-protein interaction assay MCL-1/Noxa BH3 peptide (MCL-1 assay), TR-FRET; type: binding; conditions: MBP-MCL-1 / Noxa BH3-derived peptide, median
Outline: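 Inhibition values were normalized between DMSO controls with all reagents and controls lacking MCL-1. The binding competition used 1 nM MBP-MCL-1 in pH 7 Tris buffer containing 50 mM KF and 100 mM NaCl, with a 10 min compound preincubation at 22 °C.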

SUDHL5 [1] = assay: Induction of caspase-3/7 activity (Caspase-Glo 3/7), SUDHL5; type: cell-based; conditions: caspase-3/7 induction, SUDHL5 cells, 3 h treatment, median
Outline: (§1)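 Apoptosis induction measured as caspase-3/7 activity (Caspase-Glo 3/7) in DLBCL lines after 3 h treatment at 37 °C; EC50 derived relative to the reference compound's maximal induction, with C0 fixed at 1.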

SUDHL10 [2] = assay: Induction of caspase-3/7 activity (Caspase-Glo 3/7), SUDHL10; type: cell-based; conditions: caspase-3/7 induction, SUDHL10 cells, 3 h treatment, median
Outline: as §1

SUDHL5 [3] = assay: Anti-proliferative effect (CellTiter-Glo, 72 h), SUDHL5; type: cell-based; conditions: SUDHL5 cells, antiproliferation, median, read-out: Antiproli SUDHL5 [M] (median)
Outline: (§2)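 Luminescence from CellTiter-Glo, read 10 min after reagent addition, reports viable cell content after 72 h of compound treatment at 37 °C. A reference plate read at day 0 gives the starting baseline.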

A2780 = assay: Anti-proliferative effect (CellTiter-Glo, 72 h), A2780; type: cell-based; conditions: A2780 cells, median, read-out: IC50 antiproliferation assay A2780 [M] (median)
Outline: as §2

MV-4-11 = assay: Anti-proliferative effect (CellTiter-Glo, 72 h), MV-4-11; type: cell-based; conditions: MV-4-11 cells, median, read-out: IC50 antiproliferation assay MV-4-11 [M] (median)
Outline: as §2

SUDHL5 [4] = assay: Induction of cytotoxicity (CellTiter-Glo, 5 h), SUDHL5
SUDHL10 [5] = assay: Induction of cytotoxicity (CellTiter-Glo, 5 h), SUDHL10
[6] = read-out: Cytotox SUDHL5 [M] (median), SUDHL5 cells, cytotoxicity induction, CellTiter-Glo, 5 h incubation, median
[7] = read-out: Cytotox SUDHL10 [M] (median), SUDHL10 cells, cytotoxicity induction, CellTiter-Glo, 5 h incubation, median
[8] = Homo sapiens, SU-DHL-5, 72 h, 72 h incubation

Sequence of MCL-1 (Q07820 whole entry): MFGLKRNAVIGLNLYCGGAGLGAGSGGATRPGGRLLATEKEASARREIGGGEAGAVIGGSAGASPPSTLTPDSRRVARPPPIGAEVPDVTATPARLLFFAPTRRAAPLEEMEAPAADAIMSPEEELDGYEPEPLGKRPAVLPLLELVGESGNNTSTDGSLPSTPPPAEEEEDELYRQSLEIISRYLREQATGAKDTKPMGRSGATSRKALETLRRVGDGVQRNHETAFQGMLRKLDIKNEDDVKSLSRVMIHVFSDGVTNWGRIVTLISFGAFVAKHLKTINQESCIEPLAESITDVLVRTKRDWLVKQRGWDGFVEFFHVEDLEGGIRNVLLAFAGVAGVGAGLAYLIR

SMILES	IC50 (MCL-1) [µM]	EC50 (SUDHL5 [1]) [µM]	EC50 (SUDHL10 [2]) [µM]	IC50 (SUDHL5 [3]; 72 h) [M]	IC50 (A2780) [M]	IC50 (MV-4-11) [M]	IC50 (SUDHL5 [4]; read-out: Cytotox SUDHL5 [M] (median), SUDHL5 cells, cytotoxicity induction, CellTiter-Glo, 5 h, median)	IC50 (SUDHL10 [5]; read-out: Cytotox SUDHL10 [M] (median), SUDHL10 cells, cytotoxicity induction, CellTiter-Glo, 5 h, median)	IC50 (SUDHL5 [3]; 72 h incubation) [M]	IC50 (A2780; Homo sapiens, A2780, 72 h) [M]	IC50 (MV-4-11; Homo sapiens, MV4-11, 72 h) [M]	IC50 (SUDHL5 [4]; [6]) [M]	IC50 (SUDHL10 [5]; [7]) [M]	EC50 (SUDHL10 [2]; Homo sapiens, SU-DHL10, 3 h) [µM]	IC50 (SUDHL5 [3]; [8]) [M]	IC50 (SUDHL10 [5]; Homo sapiens, SU-DHL10, 5 h, read-out: Cytotox SUDHL10 [M] (median), SUDHL10 cells, cytotoxicity induction, CellTiter-Glo, 5 h incubation, median)	EC50 (SUDHL5 [1]; Homo sapiens, SU-DHL-5, 3 h) [µM]	IC50 (SUDHL5 [3]; Homo sapiens, SU-DHL-5, 72 h, 72 h) [M]	IC50 (SUDHL5 [4]; Homo sapiens, SU-DHL-5, 5 h, read-out: Cytotox SUDHL5 [M] (median), SUDHL5 cells, cytotoxicity induction, CellTiter-Glo, 5 h, median)	IC50 (SUDHL10 [5]; Homo sapiens, SU-DHL10, 5 h, read-out: Cytotox SUDHL10 [M] (median), SUDHL10 cells, cytotoxicity induction, CellTiter-Glo, 5 h, median)
Cc1c2c(nn1C)COCCCCn1c(C(=O)O)c(CCCOc3cccc4cc(F)ccc34)c3cccc-2c31 (single isomer, unassigned; enantiomer 1) [Example 303, (−)-7-{3-((6-fluoronaphthalen-1-yl)oxypropyl}-2,3-dimethyl-2,10,11,12,13,15-hexahydropyrazolo[4′,3′:9,10][1,6]oxazacycloundecino[8,7,6-hi]indole-8-carboxylic Acid (Enantiomer 1)]	0.0268	> 33	> 33	6.97e-06	2.4e-05	2.61e-05	> 3.3e-05	> 3.3e-05												
Cc1ccc2c(C(C)CCOc3cccc4cc(F)ccc34)c(C(=O)O)n3c2c1-c1c(nn(C)c1C)COCCCC3 (single isomer, unassigned) [Example 277, 7-{4-[(6-fluoronaphthalen-1-yl)oxy]butan-2-yl}-2,3,4-trimethyl-2,10,11,12,13,15-hexahydropyrazolo[4′3′:9,10][1,6]oxazacycloundecino[8,7,6-hi]indole-8-carboxylic Acid]	0.0013	1.4	1.8						2.05e-06	1.5e-05	8.78e-06	2.1e-06	2.28e-06							
Cn1nc2c(c1OC(F)F)-c1cccc3c(CCCOc4cccc5ccccc45)c(C(=O)O)n(c13)CCCCOC2 (single isomer, unassigned) [Example 235, (−)-3-(difluoromethoxy)-2-methyl-7-[3-(naphthalen-1-yloxy)propyl]-2,10,11,12,13,15-hexahydropyrazolo[4′,3′:9,10][1,6]oxazacycloundecino[8,7,6-hi]indole-8-carboxylic Acid]	0.0779	> 33								1.8e-05	2.07e-05	> 3.3e-05		> 33	1.22e-05	> 3.3e-05				
Cc1c2c(nn1C)COCCCCn1c(C(=O)O)c(CCc3cccc4ccccc34)c3cccc-2c31 (racemic) [Example 354, (rac)-2,3-dimethyl-7-[2-(naphthalen-1-yl)ethyl]-2,10,11,12,13,15-hexahydropyrazolo[4′,3′:9,10][1,6]oxazacycloundecino[8,7,6-hi]indole-8-carboxylic Acid]	0.296				> 3.3e-05					2.73e-05	> 3.3e-05			> 33			> 33	> 3.3e-05	> 3.3e-05	> 3.3e-05
CCc1nn(C)c2c1-c1c(C)ccc3c(C(C)CCOc4cccc5ccccc45)c(C(=O)O)n(c13)CCCCOC2 (single isomer, unassigned) [Example 272, 3-ethyl-1,4-dimethyl-7-[4-(naphthalen-1-yloxy)butan-2-yl]-1,10,11,12,13,15-hexahydropyrazolo[4′,3′:9,10][1,6]oxazacycloundecino[8,7,6-hi]indole-8-carboxylic Acid]	0.983	> 33			7.15e-06						4.89e-06	> 3.3e-05	2.5e-05	23.8	2.76e-06					
CCc1nn(C)c2c1-c1c(C)ccc3c(C(C)CCOc4cccc5ccccc45)c(C(=O)O)n(c13)CCCCOC2 (single isomer, unassigned) [Example 275, 3-ethyl-1,4-dimethyl-7-[4-(naphthalen-1-yloxy)butan-2-yl]-1,10,11,12,13,15-hexahydropyrazolo[4′,3′:9,10][1,6]oxazacycloundecino[8,7,6-hi]indole-8-carboxylic Acid]	3.97	> 33	21.6		7.02e-06	4.52e-06			3.33e-06			> 3.3e-05	2.83e-05							
CN1CCCCn2c(C(=O)O)c(CCCOc3cccc4ccccc34)c3cccc(c32)-c2c(/C=C/F)nn(C)c2C1 (single isomer, unassigned) [Example 227, 3-[(E)-2-fluoroethenyl]-1,14-dimethyl-7-[3-(naphthalen-1-yloxy)propyl]-10,11,12,13,14,15-hexahydro-1H-pyrazolo[3′,4′:8,9][1,6]diazacycloundecino[10,11,1-hi]indole-8-carboxylic Acid]	0.0909	> 33	> 33		1.65e-05	1.66e-05			8.96e-06			> 3.3e-05	> 3.3e-05							
CCc1c2c(nn1CCN1CCOCC1)COCCCCn1c(C(=O)O)c(CCCOc3cccc4ccccc34)c3ccc(C)c-2c31 (single isomer, unassigned; enantiomer 1) [Example 205, 3-ethyl-4-methyl-[2-(2-(morpholin-4-yl)ethyl]-7-[3-(naphthalen-1-yloxy)propyl]-2,10,11,12,13,15-hexahydropyrazolo[4′3′:9,10][1,6]oxazacycloundecino[8,7,6-hi]indole-8-carboxylic Acid (Enantiomer 1)]	0.00165	1.33	2.49		1.03e-05	2.83e-06			2e-06			1.38e-06	2.92e-06							
CN1CCCCn2c(C(=O)O)c(CCCOc3cccc4ccccc34)c3cccc(c32)-c2c(CC(F)(F)F)nn(C)c2C1 (single isomer, unassigned) [Example 224, 1,14-dimethyl-7-[3-(naphthalen-1-yloxy)propyl]-3-(2,2,2-trifluoroethyl)-10,11,12,13,14,15-hexahydro-1H-pyrazolo[3′,4′:8,9][1,6]diazacycloundecino[10,11,1-hi]indole-8-carboxylic Acid]	0.395	> 33	> 33		1.45e-05	1.22e-05			6.03e-06			> 3.3e-05	3.2e-05							
Cc1ccc2c(CCCOc3cccc4ccccc34)c(C(=O)O)n3c2c1-c1c(C)nn(C)c1COCCC3 (single isomer, unassigned; enantiomer 2) [Example 026, (−)-9,11,12-trimethyl-1-[3-(naphthalen-1-yloxy)propyl]-5,6,8,9-tetrahydro-4H-pyrazolo[4′,3′:8,9][1,5]oxazecino[7,6,5-hi]indole-2-carboxylic acid-N-ethylethanamine Salt (Enantiomer 2)]	0.0234	23.8	20.2		1.97e-05				8.59e-06		1.14e-05	2.41e-05	2.58e-05							
Cc1ccc2c(C(C)CCOc3cccc4ccccc34)c(C(=O)O)n3c2c1-c1c(C)nn(C)c1COCCCC3 (single isomer, unassigned) [Example 260, 1,3,4-trimethyl-7-[4-(naphthalen-1-yloxy)butan-2-yl]-1,10,11,12,13,15-hexahydropyrazolo[4′3′:9,10][1,6]oxazacycloundecino[8,7,6-hi]indole-8-carboxylic Acid]	0.00875	10.2	11.3		2.2e-05				3.61e-06		4.35e-06	6.3e-06	1.18e-05							
